The values below come from patent publication US20120329721A1, “MEANS FOR PREVENTING AND TREATING CELLULAR DEATH AND THEIR BIOLOGICAL APPLICATIONS” (CHIESI FARMACEUTICI S.P.A., priority 2003, published 2012).

“Also recorded” adds a separate entry of the source. Like-named read-outs stand apart in the source and are kept apart here. Residues, ends and D or L forms follow the SMILES beside them. *: point of attachment. Cbz = O=C(OCc1ccccc1)*; CH2F = FC*

The subject of one experiment is caspase-8. Put plainly: In cellula caspase-8 like activity (FAM-LETD-FMK FLICA) in SD-neurons. The class given is cell-based, mouse. The settings on record: 24 hr-SD; inhibitors 100 μM.
In experiment [1] the test system is caspase-3. Nature of the experiment: In cellula caspase-3 like activity (FAM-DEVD-FMK FLICA or anti-cleaved caspase-3 antibody) in SD-neurons. The class given is cell-based, mouse. Particulars: 24 hr-SD; inhibitors 100 μM (BA 25 μM).
Experiment [2] concerns the target T1, human recombinant caspase-2 (Homo sapiens, UniProt P42575).
T1 construct: purchased BIOMOL
T1 sequence (P42575 170-325 limits assumed): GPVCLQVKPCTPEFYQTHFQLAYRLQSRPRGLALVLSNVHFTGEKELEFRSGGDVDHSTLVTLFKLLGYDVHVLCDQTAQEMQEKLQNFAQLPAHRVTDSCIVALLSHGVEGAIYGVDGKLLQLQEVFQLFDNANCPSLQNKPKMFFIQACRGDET
T1 sequence (P42575 348-452 limits assumed): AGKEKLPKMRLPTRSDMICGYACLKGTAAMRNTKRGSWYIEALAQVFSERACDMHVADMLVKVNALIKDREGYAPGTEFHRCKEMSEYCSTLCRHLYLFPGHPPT
Put plainly: In vitro VDVAD-AMC cleavage by recombinant caspase-2. The settings on record: inhibitor 2 μM, 50 μM VDVAD-AMC, caspase-2 125 U, 30 min at 37° C. The class given is biochemical.
Method: Activity of human recombinant caspase-2 (BIOMOL QuantiZyme™ Assay System) was assessed in 100 μl assay buffer (50 mM HEPES, pH 7.4, 100 mM NaCl, 0.1% CHAPS, 10 mM DTT, 1 mM EDTA, 10% glycerol).

Experiment [3] concerns caspase-2. Nature of the experiment: Caspase-2 activation (FLICA) in VP16-treated Jurkat cells. Format: cell-based, human. The settings on record: VP16 10 μM, 7 hrs; inhibitors 50 μM.
In experiment [4] the test system is primary cortical neurons. Format: cell-based. Particulars: for survival / protection of SD-neurons against cell death (apoptosis hallmarks overall): 24 hr-SD, inhibitors 100 μM (BA 25 μM, furosemide 2 mM, siRNA 3.8 μg).
The subject of experiment [5] is caspase-3. Nature of the experiment: Caspase-3 activation (FLICA) in VP16-treated Jurkat cells. The class given is cell-based, human. Particulars: VP16 10 μM, 7 hrs; inhibitors 50 μM.
The subject of experiment [6] is Jurkat cells. Nature of the experiment: VP16-induced cell death of Jurkat cells, cytoprotection assay. The settings on record: for terminal nuclear alterations and PMP in VP16-treated Jurkat cells / ΔΨm loss in VP16-treated Jurkat cells: VP16 10 μM, 7-8 hrs, inhibitors 50 μM. Format: cell-based, human.
Another experiment has as its system caspase-9. Nature of the experiment: In cellula caspase-9 like activity (FAM-LEHD-FMK FLICA) in SD-neurons. The class given is cell-based, mouse. Particulars: 24 hr-SD; inhibitors 100 μM (BA 25 μM). As to the method: Neurons were incubated with 1/150 of the DMSO stock solution of the FLICA for 1 hr at 37° C. 7-AAD and Hoechst were added during the last 15 min. Then neurons were washed three times in washing buffer (CaspaTag™ Kit). […] Cleaved caspase-3 was evidenced in cellula by immunodetection using Phycoerythrin (PE)-conjugated polyclonal antibodies (Beckton Dickinson). Neurons were stained by 7-AAD, trypsinized and fixed in PBS containing 1% PFA and 20 μg/ml Actinomycin D (AD) for 20 min. […] After washings in PBS, PE-related fluorescence was analysed on the cytometer (Fl-2 channel). Z-val-Ala-Asp(OMe)-FMK (Z-VAD-FMK), Quinoline-Val-Asp (OMe)-CH2-O-Ph (Q-VD-OPH), Z-DEVD-FMK ([…], ICN) and Z-LEHD-FMK ([…], all purchased from ICN (Orsay, France), and 4-(2-Aminoethyl)benzenesulfonyl fluoride (AEBSF, Pefabloc SC, Roche, Meylan, France) were added at 100 μM at the initiation of serum deprivation. Sulforhodamine-DEVD-FMK, (CaspaTag™ Red Activity Kit) permitted to detect activated caspase-3 and FITC-Annexin V. Neurons were incubated with 1/900 of the DMSO stock solution of the FLICA, and 1× FITC-annexin V in 200 μl of annexin-buffer for 30 min at 37° C. Then neurons were washed three times in a buffer composed of 50% washing buffer and 50% annexin-buffer. […] For FM, FLICA was excited through the BP515-560 filter and its fluorescence was collected through the LP590 long pass emission filter.
Neurons were loaded with 1 μM JC-1 for 30 min at 37° C. […] JC-1 monomers were detected in the Fl-1 channel by FC. […] Activated caspase-2, -3, -8 and -9 were detected using specific FAM-conjugated peptides (called Fluorochrome Labeled Inhibitor of Caspase, FLICA: CaspaTag™ fluorescein Caspase Activity Kits, Q-Biogen, Illkirch, France; ApoFluor™ Caspase Detection Kits, ICN, Orsay, France): FAM-VDVAD-FMK, FAM-DEVD-FMK, FAM-LETD-FMK and FAM-LEHD-FMK, respectively. Neurons were incubated with FLICAs (1:150, CaspaTag™ or 1:500, ApoFluor™) for 1 hr at 37° C., then washed three times in washing buffer. […] Phosphatidylserine (PS) exposure to the outer leaflet of the plasma membrane was detected through the fixation of FITC conjugated-annexin V (Immunotech).

The subject of experiment [7] is caspase-2. Nature of the experiment: In cellula caspase-2 like activity (FAM-VDVAD-FMK FLICA; Western blotting) in SD-neurons. The class given is cell-based, mouse.
The subject of experiment [8] is primary cortical neurons. Nature of the experiment: Cortical neuron death induced by other stimuli (ionomycin, staurosporine, β-amyloid 25-35, MPTP, 3-NPA, SNP). Format: cell-based, mouse. Particulars: for protection against ionomycin-induced neuronal cell death: ionomycin 6 μM, 24 hrs.
The subject of another experiment is Bax α. Nature of the experiment: Bax cleavage (p22 to p18) in SD-neurons by Western blotting. The class given is cell-based, mouse. Particulars: 24 hr-SD, Western Blotting Δ21 antibody; VDVAD/QVDOPH 100 μM, ALLN/ALLM 25 μM, E64d 25-50 μM, lactacystin 1-10 μM, epoxomycin 10 μM. The procedure: Neurons were lysed at RT in 25 mM Tris-HCl pH 7.4, 25 mM NaCl, 5 mM EDTA, 1% Triton X-100 supplemented by complete protease inhibitors cocktail (Roche). Protein concentration was determined using the Bio-Rad protein assay kit. Proteins (30 μg for caspase-2; 10 μg for Bax) were separated on 12.5% polyacrylamide gels and transferred to PVDF membranes (Amersham). […] The monoclonal anti-mouse caspase-2antibody (11B4, Alexis Biochemicals) was used at a 1:1000 dilution; polyclonal antibody (Δ21, Santa Cruz Biotechnology) raised against mouse Bax α deleted for the carboxy terminal 21 amino acids was used at a 1:200 dilution; polyclonal antibody (N20, Santa Cruz Biotechnology) raised against the amino terminus of Bax α (recognizing residues 11 to 30) was used at a 1:1000 dilution. Actin (42 kDa; Sigma; 1:5000) is used as an equal loading control. Immunoblotting of heat-shock protein 60 (HSP60) with a mouse monoclonal anti-HSP (Sigma; 1:400) was used to check the purity of the heavy membrane fraction enriched in mitochondria.
(In western blotting, separated proteins are transferred to a membrane and probed.)

Another experiment has as its system Bax. Nature of the experiment: Bax translocation to mitochondria in SD-neurons (Δ21 antibody immunostaining, subcellular fractionation). Format: cell-based, mouse. The settings on record: 24 hr-SD, inhibitors 100 μM (furosemide 2 mM).
The test system of experiment [9] is Jurkat cells. The settings on record: model of Robertson et al., 2002; cited from earlier work.
A further experiment has as its system cytochrome c. Put plainly: Immunodetection of cytochrome c release in SD-neurons. Format: cell-based, mouse. The settings on record: 24 hr-SD, inhibitors 100 μM.

`COC(=O)CCC(NC(=O)C(CC(C)C)NC(=O)OCc1ccccc1)C(=O)NC(C(=O)NC(CC(=O)OC)C(=O)CF)C(C)O` (centres unmarked) [Z-LETD-FMK, N-benzyloxycarbonyl-Leu-Glu(Ome)-Thr-Asp(OMe)-fluoromethylketone] (Cbz-LE(OMe)TD(OMe)-CH2F; configuration not given here): the “caspase-8 like activity in SD-neurons” value with caspase-8 is listed as “abolishing”. Moreover, the “caspase-3 like activity / activation in SD-neurons” value in the experiment on caspase-3 [1] is listed as “failed also to block”. Moreover, in experiment [2], the “inhibition of VDVAD-AMC cleavage by recombinant caspase-2” value is given as “did not interfere highly; also recorded: not strongly inactivated”. Further, the “caspase-2 activation in VP16-treated Jurkat cells” value in the experiment with caspase-2 [3] is recorded as “do not impair caspase-2 activation; also recorded: unable to prevent”. The “survival / protection of SD-neurons against cell death (apoptosis hallmarks overall)” value with primary cortical neurons [4] is “failed to protect neurons from SD”. Moreover, the “caspase-3 activation in VP16-treated Jurkat cells” value with caspase-3 [5] is “unable to prevent”. Besides, in the experiment with Jurkat cells [6], the “terminal nuclear alterations and PMP in VP16-treated Jurkat cells” value was “unable to prevent”; the “ΔΨm loss in VP16-treated Jurkat cells” value is listed as “not abolished; also recorded: unable to prevent”. The “caspase-9 like activity / activation in SD-neurons” value in the experiment with caspase-9 is recorded as “failed also to block”.

Consider `COC(=O)CC(NC(=O)C(C)NC(=O)C(NC(=O)C(CC(=O)OC)NC(=O)C(NC(=O)OCc1ccccc1)C(C)C)C(C)C)C(=O)CF` (stereo not drawn) [Z-VDVAD-FMK, N-benzyloxy-carbonyl-Val-Asp(Ome)-Val-Ala-Asp(OMe)-fluoromethylketone] (Cbz-VD(OMe)VAD(OMe)-CH2F; configuration not given here), for which the “caspase-2 like activity / activation in SD-neurons” value with caspase-2 [7] was “abolished; also recorded: abolish caspase-2 activation; also recorded: impair both Bax translocation and caspase-2 activity; also recorded: blocks”. Further, in the experiment on caspase-2 [7] (24 hr-SD, 100 μM, Western Blotting 11B4), the “decrease of procaspase-2 protein content (processing into p14 form) in SD-neurons” value is “prevents it”. The “cell death induced by staurosporine or ionomycin” value in the experiment with primary cortical neurons [8] (cortical neurons) is “is not prevented”. In addition, the “protection against ionomycin-induced neuronal cell death” value is “provides no protective effect; also recorded: absence of protective effect” in the experiment with primary cortical neurons [8] and “absence of protection” in the experiment with primary cortical neurons [8] (listed as VDVAD). For the same compound, the “caspase-3 like activity / activation in SD-neurons” value in the experiment with caspase-3 [1] is “inhibited; also recorded: prevent downstream cytochrome c release-dependent activation”. In experiment [2], the “inhibition of VDVAD-AMC cleavage by recombinant caspase-2” value is recorded as “blocked”. In the experiment on Bax α, the “Bax cleavage (p18 Bax) in SD-neurons” value is given as “prevent Bax cleavage”. Moreover, the results for the “survival / protection of SD-neurons against cell death (apoptosis hallmarks overall)” value in the experiment with primary cortical neurons [4] and in the experiment with primary cortical neurons [4] (listed as VDVAD) were “abolish loss of ΔΨm loss as well as others hallmarks of apoptosis” and “abolishes these hallmarks of apoptosis”, respectively. In the experiment with primary cortical neurons [4] (dose-response, inhibitor added at the initiation of 24 hr-SD), the “concentration required for optimal survival / higher protective effect” value came out at 100 µM. Further, the “Bax translocation (relocation) to mitochondria in SD-neurons” value with Bax was “impair Bax translocation to mitochondria; also recorded: impair both Bax translocation and caspase-2 activity”; in the experiment on Bax (listed as VDVAD), “prevented; also recorded: blocks; also recorded: prevents integration of p18 Bax into mitochondrial membrane”. In addition, the “cell death induced by VP16 (survival)” value with Jurkat cells [6] (Jurkat cells, VP16 7-8 hrs, inhibitors 25-100 μM pre-treatment, siRNA 24 hrs before) is reported as “protective effect; also recorded: prevents cell death”. Moreover, the “terminal nuclear alterations and PMP in VP16-treated Jurkat cells” value with Jurkat cells [6] is given as “mostly prevent”. Further, in the experiment with Jurkat cells [6], the “ΔΨm loss in VP16-treated Jurkat cells” value was “blocked ΔΨm loss”. The “cytochrome c release and phosphatidylserine residues exposure in Jurkat T cells” value with Jurkat cells [9] was “decreased partially”. The figures for the “cytochrome c release from mitochondria in SD-neurons” value in the experiment on cytochrome c and in the experiment with cytochrome c (listed as VDVAD) were “efficiently blocked” and “reduce post-mitochondrial cytochrome c release”, respectively. Besides, the “caspase-9 like activity / activation in SD-neurons” value with caspase-9 is given as “inhibited; also recorded: prevent downstream cytochrome c release-dependent activation”.
